From patent US20240199649A1 (Biosplice Therapeutics, Inc., priority 2022, published 2024) come the findings set out here.

As a reminder, the IC50 is the concentration that gives 50% inhibition.

The target of the experiment is recombinant DYRK1A kinase (Homo sapiens (Human), UniProt Q13627). Put plainly: DYRK1A kinase assay (Ser/Thr 18 peptide Z-lyte FRET assay). It counts as biochemical. To be noted: DYRK1A 0.25 μg/mL, ATP 15 μM, Ser/Thr peptide 18 4 μM; one hour at room temperature; 11-point dose-response, duplicate. The method, boiled down:
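Z-lyte FRET assay on Ser/Thr 18 peptide, kinase activity read as coumarin/fluorescein emission ratio; compounds incubated 1 h at room temperature, then development reagent 1 h, in duplicate. Phosphorylated and unphosphorylated peptide served as controls; IC50 by non-linear regression of dose-response curves.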
Turning to `CNc1nc(N[C@@H]2CCN(C(C)=O)CC2(F)F)nn2ccc(-c3ccc4nc(C)n(CCF)c4n3)c12` [Compound 1021, (R)-1-(3,3-Difluoro-4-((5-(3-(2-fluoroethyl)-2-methyl-3H-imidazo[4,5-b]pyridin-5-yl)-4-(methylamino)pyrrolo[2,1-f][1,2,4]triazin-2-yl)amino)piperidin-1-yl)ethan-1-one], the half-maximal inhibitory concentration (IC50) worked out at 1.3 nM.
Consider `CNc1nc(N[C@H]2CCN(C(C)=O)C[C@H]2F)nn2ccc(-c3ccc4nc(C)n(CC(F)F)c4n3)c12` [Compound 1022, 1-((3R,4S)-4-((5-(3-(2,2-Difluoroethyl)-2-methyl-3H-imidazo[4,5-b]pyridin-5-yl)-4-(methylamino)pyrrolo[2,1-f][1,2,4]triazin-2-yl)amino)-3-fluoropiperidin-1-yl)ethan-1-one], for which the IC50 came out at 0.4 nM.
To `CNc1nc(N[C@@H]2CCN(C(C)=O)CC2(F)F)nn2ccc(-c3ccc4nc(C)n(CC(F)F)c4n3)c12` [Compound 1023, (R)-1-(4-((5-(3-(2,2-Difluoroethyl)-2-methyl-3H-imidazo[4,5-b]pyridin-5-yl)-4-(methylamino)pyrrolo[2,1-f][1,2,4]triazin-2-yl)amino)-3,3-difluoropiperidin-1-yl)ethan-1-one] belongs 4.7 nM; to `CNc1nc(N[C@@H]2CCN(C(C)=O)CC2(F)F)nn2ccc(-c3ccc4nc(C)n(CC(F)(F)F)c4n3)c12` [Compound 1024, (R)-1-(3,3-Difluoro-4-((5-(2-methyl-3-(2,2,2-trifluoroethyl)-3H-imidazo[4,5-b]pyridin-5-yl)-4-(methylamino)pyrrolo[2,1-f][1,2,4]triazin-2-yl)amino)piperidin-1-yl)ethan-1-one], 1 nM; to `CNc1nc(NC2CCC(F)(F)CC2)nn2ccc(-c3ccc4nnn(CC(F)F)c4n3)c12` [Compound 1025, N^2-(4,4-Difluorocyclohexyl)-5-(3-(2,2-difluoroethyl)-3H-[1,2,3]triazolo[4,5-b]pyridin-5-yl)-N^4-methylpyrrolo[2,1-f][1,2,4]triazine-2,4-diamine], 10.1 nM.
To `CNc1nc(N[C@@H]2CN(C(C)=O)C[C@@H]2F)nn2ccc(-c3ccc4nnn(CC(F)F)c4n3)c12` [Compound 1026, 1-((3R,4S)-3-((5-(3-(2,2-Difluoroethyl)-3H-[1,2,3]triazolo[4,5-b]pyridin-5-yl)-4-(methylamino)pyrrolo[2,1-f][1,2,4]triazin-2-yl)amino)-4-fluoropyrrolidin-1-yl)ethan-1-one] belongs 0.3 nM; to `CNc1nc(N[C@@H]2CN(C)CC2(F)F)nn2ccc(-c3ccc4nnn(CC(F)F)c4n3)c12` [Compound 1027, (R)—N^2-(4,4-Difluoro-1-methylpyrrolidin-3-yl)-5-(3-(2,2-difluoroethyl)-3H-[1,2,3]triazolo[4,5-b]pyridin-5-yl)-N^4-methylpyrrolo[2,1-f][1,2,4]triazine-2,4-diamine], 0.6 nM.
In the case of `CNc1nc(N[C@@H]2CN(C3COC3)CC2(F)F)nn2ccc(-c3ccc4nnn(CC(F)F)c4n3)c12` [Compound 1028, (R)—N^2-(4,4-Difluoro-1-(oxetan-3-yl)pyrrolidin-3-yl)-5-(3-(2,2-difluoroethyl)-3H-[1,2,3]triazolo[4,5-b]pyridin-5-yl)-N^4-methylpyrrolo[2,1-f][1,2,4]triazine-2,4-diamine], the IC50 came out at 1.3 nM.
Regarding `CNc1nc(N[C@@H]2CCN(C(C)=O)CC2(F)F)nn2ccc(-c3ccc4nnn(CC(F)F)c4n3)c12` [Compound 1029, (R)-1-(4-((5-(3-(2,2-Difluoroethyl)-3H-[1,2,3]triazolo[4,5-b]pyridin-5-yl)-4-(methylamino)pyrrolo[2,1-f][1,2,4]triazin-2-yl)amino)-3,3-difluoropiperidin-1-yl)ethan-1-one], the concentration for half-maximal inhibition (IC50) worked out at 1.3 nM.
Regarding `CNc1nc(N[C@H]2CC[C@](C)(O)CC2)nn2ccc(-c3ccc4nnn(CC(F)(F)F)c4n3)c12` [Compound 1031, (1r,4r)-1-Methyl-4-((4-(methylamino)-5-(3-(2,2,2-trifluoroethyl)-3H-[1,2,3]triazolo[4,5-b]pyridin-5-yl)pyrrolo[2,1-f][1,2,4]triazin-2-yl)amino)cyclohexan-1-ol], the IC50 amounted to 4 nM.
As to `CNc1nc(N[C@H]2CCN(C(C)=O)C[C@H]2F)nn2ccc(-c3ccc4nnn(CC(F)(F)F)c4n3)c12` [Compound 1032, 1-((3R,4S)-3-Fluoro-4-((4-(methylamino)-5-(3-(2,2,2-trifluoroethyl)-3H-[1,2,3]triazolo[4,5-b]pyridin-5-yl)pyrrolo[2,1-f][1,2,4]triazin-2-yl)amino)piperidin-1-yl)ethan-1-one], the IC50 was found to be 2.8 nM.
In the case of `CNc1nc(N[C@H]2CCN(C3COC3)C[C@H]2F)nn2ccc(-c3ccc4nnn(CC(F)(F)F)c4n3)c12` [Compound 1033, N^2-((3R,4S)-3-Fluoro-1-(oxetan-3-yl)piperidin-4-yl)-N^4-methyl-5-(3-(2,2,2-trifluoroethyl)-3H-[1,2,3]triazolo[4,5-b]pyridin-5-yl)pyrrolo[2,1-f][1,2,4]triazine-2,4-diamine] it was 2 nM.
In the case of `CNc1nc(N[C@@H]2CCN(C)CC2(F)F)nn2ccc(-c3ccc4nnn(CC(F)(F)F)c4n3)c12` [Compound 1034, (R)—N^2-(3,3-Difluoro-1-methylpiperidin-4-yl)-N^4-methyl-5-(3-(2,2,2-trifluoroethyl)-3H-[1,2,3]triazolo[4,5-b]pyridin-5-yl)pyrrolo[2,1-f][1,2,4]triazine-2,4-diamine] it was 1.9 nM.
To `CNc1nc(N[C@@H]2CCN(C3COC3)CC2(F)F)nn2ccc(-c3ccc4nnn(CC(F)(F)F)c4n3)c12` [Compound 1036, (R)—N^2-(3,3-Difluoro-1-(oxetan-3-yl)piperidin-4-yl)-N^4-methyl-5-(3-(2,2,2-trifluoroethyl)-3H-[1,2,3]triazolo[4,5-b]pyridin-5-yl)pyrrolo[2,1-f][1,2,4]triazine-2,4-diamine] belongs 1 nM.
Consider “N^2-(4,4-Difluorocyclohexyl)-N^4-methyl-5-(3-(2,2,2-trifluoroethyl)-3H-[1,2,3]triazolo[4,5-b]pyridin-5-yl)pyrrolo[2,1-f][1,2,4]triazine-2,4-diamine [Compound 1030]”, for which the half-inhibitory concentration (IC50) was 193 nM.
To “N^4-Methyl-N^2-(1-(oxetan-3-yl)piperidin-4-yl)-5-(pyrazolo[1,5-a]pyridin-5-yl)pyrrolo[2,1-f][1,2,4]triazine-2,4-diamine [Compound 2]” belongs 270 nM.
